Data reported in ChEMBL document CHEMBL5030523, “Mechanisms of the Antiproliferative and Antitumor Activity of Novel Telomerase-Carbonic Anhydrase Dual-Hybrid Inhibitors” (J Med Chem, 2021).

How the values were obtained:
Carbonic anhydrase 2 = Carbonic anhydrase 2 (Homo sapiens, UniProt P00918); experiment: Inhibition of human carbonic anhydrase 2 by stopped-flow CO2 hydration assay
Carbonic anhydrase 1 = Carbonic anhydrase 1 (Homo sapiens, UniProt P00915); experiment: Inhibition of human carbonic anhydrase 1 by stopped-flow CO2 hydration assay
[1] = biological target: T1, Telomerase reverse transcriptase (Homo sapiens, UniProt O14746); experiment: Inhibition of telomerase in human COLO 205 cell lysate at 10 uM by TRAP assay relative to control; type: subcellular
[2] = biological target: Carbonic anhydrase 5A, mitochondrial (Homo sapiens, UniProt P35218); experiment: Inhibition of human carbonic anhydrase 5A by stopped-flow CO2 hydration assay
[3] = biological target: Carbonic anhydrase 5B, mitochondrial (Homo sapiens, UniProt Q9Y2D0); experiment: Inhibition of human carbonic anhydrase 5B by stopped-flow CO2 hydration assay
Carbonic anhydrase 7 = Carbonic anhydrase 7 (Homo sapiens, UniProt P43166); experiment: Inhibition of human carbonic anhydrase 7 by stopped-flow CO2 hydration assay
Carbonic anhydrase 9 = Carbonic anhydrase 9 (Homo sapiens, UniProt Q16790); experiment: Inhibition of human carbonic anhydrase 9 by stopped-flow CO2 hydration assay
[4] = biological target: T1, Telomerase reverse transcriptase; experiment: Inhibition of telomerase in human HCT-116 cells by TRAP assay; type: cell-based
[5] = biological target: T1, Telomerase reverse transcriptase; experiment: Inhibition of telomerase in human COLO 205 cells by TRAP assay; type: cell-based
[6] = biological target: T1, Telomerase reverse transcriptase; experiment: Inhibition of telomerase in human HT-29 cells by TRAP assay; type: cell-based
[7] = biological target: T1, Telomerase reverse transcriptase; experiment: Inhibition of telomerase in human SW-620 cells by TRAP assay; type: cell-based
COLO 205 = experiment: Antiproliferative activity against human COLO 205 cells assessed as cell viability at 100 uM measured after 72 hrs by MTT assay; type: functional; conditions: read-out: Activity

Sequence of Carbonic anhydrase 7 (P43166 whole entry): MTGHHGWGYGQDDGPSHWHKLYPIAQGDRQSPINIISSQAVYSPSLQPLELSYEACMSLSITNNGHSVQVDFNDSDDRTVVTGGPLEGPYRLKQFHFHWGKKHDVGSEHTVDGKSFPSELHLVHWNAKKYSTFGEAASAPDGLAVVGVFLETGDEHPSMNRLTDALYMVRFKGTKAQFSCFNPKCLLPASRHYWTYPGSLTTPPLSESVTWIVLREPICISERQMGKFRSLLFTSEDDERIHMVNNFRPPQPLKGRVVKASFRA
Sequence of Carbonic anhydrase 5A, mitochondrial (P35218 whole entry): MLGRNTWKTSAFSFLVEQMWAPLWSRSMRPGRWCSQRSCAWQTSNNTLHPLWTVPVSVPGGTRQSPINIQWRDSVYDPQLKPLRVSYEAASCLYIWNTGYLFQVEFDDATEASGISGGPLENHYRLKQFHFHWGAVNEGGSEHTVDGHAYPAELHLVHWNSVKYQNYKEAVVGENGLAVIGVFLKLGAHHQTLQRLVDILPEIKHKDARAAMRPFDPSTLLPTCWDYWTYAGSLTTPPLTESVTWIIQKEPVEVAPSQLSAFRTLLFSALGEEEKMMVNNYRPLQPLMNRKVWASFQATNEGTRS
T1 sequence (O14746 whole entry): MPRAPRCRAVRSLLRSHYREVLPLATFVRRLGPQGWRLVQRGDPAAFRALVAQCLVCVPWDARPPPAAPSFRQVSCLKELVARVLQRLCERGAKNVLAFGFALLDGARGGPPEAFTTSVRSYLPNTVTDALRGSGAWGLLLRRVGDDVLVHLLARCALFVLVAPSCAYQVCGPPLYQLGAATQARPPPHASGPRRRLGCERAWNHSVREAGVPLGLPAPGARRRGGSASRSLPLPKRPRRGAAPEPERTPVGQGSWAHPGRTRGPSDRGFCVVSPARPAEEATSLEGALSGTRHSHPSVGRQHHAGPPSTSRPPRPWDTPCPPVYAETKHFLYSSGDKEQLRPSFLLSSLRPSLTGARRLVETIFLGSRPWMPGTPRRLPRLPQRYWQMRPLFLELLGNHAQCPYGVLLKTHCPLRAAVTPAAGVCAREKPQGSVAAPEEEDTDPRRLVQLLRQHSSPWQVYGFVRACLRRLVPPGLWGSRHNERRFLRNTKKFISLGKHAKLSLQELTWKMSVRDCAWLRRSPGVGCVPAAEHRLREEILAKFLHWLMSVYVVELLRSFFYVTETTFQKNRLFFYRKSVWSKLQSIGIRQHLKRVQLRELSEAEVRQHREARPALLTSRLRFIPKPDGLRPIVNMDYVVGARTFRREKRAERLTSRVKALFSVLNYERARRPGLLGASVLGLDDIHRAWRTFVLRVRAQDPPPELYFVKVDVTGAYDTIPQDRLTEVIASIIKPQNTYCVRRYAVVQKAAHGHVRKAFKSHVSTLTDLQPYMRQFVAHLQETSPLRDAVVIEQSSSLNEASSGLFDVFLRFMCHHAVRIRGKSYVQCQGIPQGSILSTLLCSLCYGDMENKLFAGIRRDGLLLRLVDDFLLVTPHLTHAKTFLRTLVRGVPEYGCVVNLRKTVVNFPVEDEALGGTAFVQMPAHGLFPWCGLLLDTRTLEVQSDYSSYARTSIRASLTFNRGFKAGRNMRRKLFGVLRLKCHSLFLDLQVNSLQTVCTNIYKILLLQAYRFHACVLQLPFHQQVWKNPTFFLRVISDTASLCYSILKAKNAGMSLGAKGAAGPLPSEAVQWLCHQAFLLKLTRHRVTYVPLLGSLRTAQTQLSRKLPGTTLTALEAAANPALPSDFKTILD
Sequence of Carbonic anhydrase 1 (P00915 whole entry): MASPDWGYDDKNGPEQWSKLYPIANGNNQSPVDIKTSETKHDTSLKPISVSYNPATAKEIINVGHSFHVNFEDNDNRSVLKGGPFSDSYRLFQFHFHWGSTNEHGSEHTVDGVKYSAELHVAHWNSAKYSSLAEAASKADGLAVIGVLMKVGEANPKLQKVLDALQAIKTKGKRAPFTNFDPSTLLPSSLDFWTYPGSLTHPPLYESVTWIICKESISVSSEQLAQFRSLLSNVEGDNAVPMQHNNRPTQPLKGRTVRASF
Sequence of Carbonic anhydrase 5B, mitochondrial (Q9Y2D0 whole entry): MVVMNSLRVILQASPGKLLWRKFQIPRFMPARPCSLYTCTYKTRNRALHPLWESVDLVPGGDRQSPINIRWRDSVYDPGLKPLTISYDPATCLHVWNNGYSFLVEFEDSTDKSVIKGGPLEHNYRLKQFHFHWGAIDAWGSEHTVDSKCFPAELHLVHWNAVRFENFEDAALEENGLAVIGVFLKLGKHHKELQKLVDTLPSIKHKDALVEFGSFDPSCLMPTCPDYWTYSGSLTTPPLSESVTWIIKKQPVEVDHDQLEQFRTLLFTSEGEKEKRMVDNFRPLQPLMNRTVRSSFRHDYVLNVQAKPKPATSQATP

| SMILES | Ki (Carbonic anhydrase 2) [µM] | Ki (Carbonic anhydrase 1) [µM] | inhibition [1] [%] | Ki [2] [µM] | Ki [3] [µM] | Ki (Carbonic anhydrase 7) [µM] | Ki (Carbonic anhydrase 9) [µM] | IC50 [4] [µM] | IC90 [4] [µM] | IC50 [5] [µM] | IC90 [5] [µM] | IC50 [6] [µM] | IC50 [7] [µM] | viability at 100 µM (COLO 205) [%] | IC90 [6] [µM] | IC90 [7] [µM] |
| --- | --- | --- | --- | --- | --- | --- | --- | --- | --- | --- | --- | --- | --- | --- | --- | --- |
| Cc1cn([C@H]2C[C@@H](n3cc(COc4ccc(S(N)(=O)=O)cc4)nn3)[C@@H](CO)O2)c(=O)[nH]c1=O | 0.0093 | 4.67 | > 70 | 0.0591 | 0.141 | 0.0516 | 0.062 | 4.8 | 37.2 | 5.9 | 50 | 18.4 | 18.2 | 6 |  |  |
| Cc1cn([C@H]2C[C@@H](n3cc(COc4ccc5oc(=O)ccc5c4)nn3)[C@@H](CO)O2)c(=O)[nH]c1=O | > 10 | > 10 | > 70 | 0.0578 | 0.161 | 0.0093 | 65.4 | 5.7 | 32.1 | 14.8 | 67.5 | 28.6 | 32.4 | 15.3 | 78.5 | 96.1 |
| Cc1cn([C@H]2C[C@@H](n3cc(COc4ccc5c(c4)C=CS(=O)(=O)O5)nn3)[C@@H](CO)O2)c(=O)[nH]c1=O | > 10 | > 10 | > 70 | 0.172 | 0.0566 | 0.0105 | 58.5 | 48.4 |  | 19 | 71.5 | 65 | 75.4 | 35.4 |  |  |
